From PMC10590383, “Repurposing conformational changes in ANL superfamily enzymes to rapidly generate biosensors for organic and amino acids” (Nature Communications, 2023)

Experiment: Dose–response curve of purified […]s with phenylalanine
Type: biochemical
Method: Fig. 3 Dose–response curves and fluorescence spectrums of […]s. a, c, e, g, i, k Dose–response curve of purified […]s with increasing concentrations of ligand in 100 mM Tris-HCl buffer (pH=7.5). The normalized ΔF/F0 value increased after ligand binding. All data shown are mean ± S.D. (n = 3 biologically independent samples). b, d, f, h, j, l The fluorescence spectra of […]s changed as the ligand concentration increased. All data shown are mean ± S.D. (n = 3 biologically independent samples). Source data are provided as a Source data file.
Fig. 4 Engineering ligand specificity of GrsA-PheA for generating […]s. a The selectivity-conferring code of Phe and Leu A domains. b–f Dose–response curve of purified […]s with increasing concentrations of ligands in 100 mM Tris-HCl buffer (pH=7.5). All data shown are means ± S.D. (n = 3 biologically independent samples). g A series of […] reactions was tested to show the […]’s specificity with 20 proteinogenic amino acids. The values on the heatmap represent the ΔF/F0 value normalized to each […]’s maximal ΔF/F0 value ((ΔF/F0)/maximal ΔF/F0). The concentrations of 20 amino acids were 100 μM. The color indicates the average value of three independent biological replicates after 15 min. All data shown are means ± S.D. (n = 3 biologically independent samples). Source data are provided as a Source data file.
The study conducted dose–response curve, substrate specificity, and fluorescent spectrum analyses in 100-mM Tris buffer (pH = 7.5), while pH stability experiments were performed in 100-mM Tris buffer at three different pH values (6.5, 7.5, and 8.5) at room temperature. […] protein at a concentration of 0.75 μM, various small molecule concentrations, 1 mM ATP, and 2.5 mM MgCl2 were used in the experiments. Fluorescent signals were detected using a Microplate Reader (Synergy H4, Bio Tek) at an excitation/emission wavelength of 460 nm/510 nm or 480 nm/510 nm. The dose-response curve was determined immediately after the addition of the analyte. The total duration of the measurement was 15 min, with readings taken at one-minute intervals. The dose-response curve was plotted using the fluorescence values obtained after achieving stability in the fluorescence signal. The dose-response curves were fitted using the logistic model LOGISTIC5 available in Origin 2021, which could provide a more adequate fit to asymmetric dose-response data[62],[63]. Excitation spectra were scanned from 300 to 540 nm with a step size of 5 nm, and the emission wavelength was set to 560 nm. Emission spectra were scanned from 470 to 700 nm with a step size of 5 nm, and the excitation wavelength was set to 450 nm. The thermal stability of […] was analyzed using the UNcle multifunctional protein stability analysis system. Measurements were performed in 20 mM MOPS buffer with 2 mM DTT at a sample concentration of 1 mg/mL. Absolute fluorescence quantum yields were measured using an absolute photoluminescence quantum yield spectrometer (FS5, Edinburgh).

With `N[C@@H](Cc1ccccc1)C(=O)O` [Phe] the “AVE, dose-response Fig. 4 b” value (substrate Phe 0.001 μM) was 0, the “AVE, dose-response Fig. 4 b” value (substrate Phe 0.005 μM) was 0.04668 and the “AVE, dose-response Fig. 4 b” value (substrate Phe 0.01 μM) was 0.05356. The “AVE, dose-response Fig. 4 b” value (substrate Phe 0.05 μM) was 0.1413, the “AVE, dose-response Fig. 4 b” value (substrate Phe 0.1 μM) was 0.2634 and the “AVE, dose-response Fig. 4 b” value (substrate Phe 0.5 μM) was 0.9215. The “AVE, dose-response Fig. 4 b” value (substrate Phe 1 μM) was 1.384, the “AVE, dose-response Fig. 4 b” value (substrate Phe 5 μM) was 2.412 and the “AVE, dose-response Fig. 4 b” value (substrate Phe 10 μM) was 2.788. For the same compound, the “AVE, dose-response Fig. 4 b” value (substrate Phe 25 μM) was 3.108, the “AVE, dose-response Fig. 4 b” value (substrate Phe 50 μM) was 3.25 and the “AVE, dose-response Fig. 4 b” value (substrate Phe 100 μM) was 3.385. The “AVE, dose-response Fig. 4 c” value (substrate Phe 0.5 μM) was 0, the “AVE, dose-response Fig. 4 c” value (substrate Phe 1 μM) was 0.02176 and the “AVE, dose-response Fig. 4 c” value (substrate Phe 2 μM) was 0.04684. For the same compound, the “AVE, dose-response Fig. 4 c” value (substrate Phe 5 μM) was 0.0476, the “AVE, dose-response Fig. 4 c” value (substrate Phe 10 μM) was 0.102 and the “AVE, dose-response Fig. 4 c” value (substrate Phe 20 μM) was 0.1609. For the same compound, the “AVE, dose-response Fig. 4 c” value (substrate Phe 50 μM) was 0.1914, the “AVE, dose-response Fig. 4 c” value (substrate Phe 100 μM) was 0.2096 and the “AVE, dose-response Fig. 4 c” value (substrate Phe 200 μM) was 0.2332. The “AVE, dose-response Fig. 4 c” value (substrate Phe 500 μM) was 0.2962, the “AVE, dose-response Fig. 4 c” value (substrate Phe 750 μM) was 0.3509 and the “AVE, dose-response Fig. 4 c” value (substrate Phe 1000 μM) was 0.2649. For the same compound, the “AVE, dose-response Fig. 4 e” value (substrate Phe 0.1 μM) was -6.4763e-17, the “AVE, dose-response Fig. 4 e” value (substrate Phe 0.2 μM) was 0.02607 and the “AVE, dose-response Fig. 4 e” value (substrate Phe 1 μM) was 0.02065. The “AVE, dose-response Fig. 4 e” value (substrate Phe 2 μM) was 0.01654, the “AVE, dose-response Fig. 4 e” value (substrate Phe 10 μM) was 0.06065 and the “AVE, dose-response Fig. 4 e” value (substrate Phe 20 μM) was 0.08275. The “AVE, dose-response Fig. 4 e” value (substrate Phe 100 μM) was 0.1347, the “AVE, dose-response Fig. 4 e” value (substrate Phe 200 μM) was 0.2309 and the “AVE, dose-response Fig. 4 e” value (substrate Phe 500 μM) was 0.3796. For the same compound, the “AVE, dose-response Fig. 4 e” value (substrate Phe 1000 μM) was 0.4613, the “AVE, dose-response Fig. 4 e” value (substrate Phe 1500 μM) was 0.4963 and the “AVE, dose-response Fig. 4 e” value (substrate Phe 2000 μM) was 0.5161. For the same compound, the “AVE, dose-response Fig. 4 f” value (substrate Phe 0.0001 μM) was -0.000122, the “AVE, dose-response Fig. 4 f” value (substrate Phe 0.001 μM) was 0.002395 and the “AVE, dose-response Fig. 4 f” value (substrate Phe 0.01 μM) was 0.009697. The “AVE, dose-response Fig. 4 f” value (substrate Phe 0.1 μM) was 0.01529, the “AVE, dose-response Fig. 4 f” value (substrate Phe 1 μM) was -0.009047 and the “AVE, dose-response Fig. 4 f” value (substrate Phe 10 μM) was 0.009571. The “AVE, dose-response Fig. 4 f” value (substrate Phe 50 μM) was 0.1062, the “AVE, dose-response Fig. 4 f” value (substrate Phe 100 μM) was 0.2173 and the “AVE, dose-response Fig. 4 f” value (substrate Phe 500 μM) was 0.5047. For the same compound, the “AVE, dose-response Fig. 4 f” value (substrate Phe 1000 μM) was 0.643, the “AVE, dose-response Fig. 4 f” value (substrate Phe 5000 μM) was 0.6763 and the “AVE, dose-response Fig. 4 f” value (substrate Phe 10000 μM) was 0.7368. For the same compound, the “AVE, dose-response Fig. 4 d” value (substrate Phe 0.01 μM) was 0.02814, the “AVE, dose-response Fig. 4 d” value (substrate Phe 0.1 μM) was 0.03519 and the “AVE, dose-response Fig. 4 d” value (substrate Phe 1 μM) was 0.04924. For the same compound, the “AVE, dose-response Fig. 4 d” value (substrate Phe 5 μM) was 0.06403, the “AVE, dose-response Fig. 4 d” value (substrate Phe 10 μM) was 0.08037 and the “AVE, dose-response Fig. 4 d” value (substrate Phe 50 μM) was 0.1108. The “AVE, dose-response Fig. 4 d” value (substrate Phe 100 μM) was 0.1713, the “AVE, dose-response Fig. 4 d” value (substrate Phe 200 μM) was 0.2373 and the “AVE, dose-response Fig. 4 d” value (substrate Phe 500 μM) was 0.3495. The “AVE, dose-response Fig. 4 d” value (substrate Phe 750 μM) was 0.3806, the “AVE, dose-response Fig. 4 d” value (substrate Phe 1000 μM) was 0.3842 and the “fluorescence response of GECFINDER, AVE of 3 repeats” value (from here on “fluorescence response of GECFINDER”) (Supplementary Fig. 3 a, Phe 0.001 μM) was 0. The “fluorescence response of GECFINDER” value (Supplementary Fig. 3 a, Phe 0.005 μM) was 0.03394, the “fluorescence response of GECFINDER” value (Supplementary Fig. 3 a, Phe 0.01 μM) was 0.09128 and the “fluorescence response of GECFINDER” value (Supplementary Fig. 3 a, Phe 0.1 μM) was 0.1211. For the same compound, the “fluorescence response of GECFINDER” value (Supplementary Fig. 3 a, Phe 1 μM) was 0.1406, the “fluorescence response of GECFINDER” value (Supplementary Fig. 3 a, Phe 10 μM) was 0.1472 and the “fluorescence response of GECFINDER” value (Supplementary Fig. 3 a, Phe 50 μM) was 0.1578. The “fluorescence response of GECFINDER” value (Supplementary Fig. 3 a, Phe 100 μM) was 0.198, the “fluorescence response of GECFINDER” value (Supplementary Fig. 3 a, Phe 500 μM) was 0.3919 and the “fluorescence response of GECFINDER” value (Supplementary Fig. 3 a, Phe 1000 μM) was 0.5221. The “fluorescence response of GECFINDER” value (Supplementary Fig. 3 a, Phe 5000 μM) was 0.7757, the “fluorescence response of GECFINDER” value (Supplementary Fig. 3 a, Phe 10000 μM) was 0.7576 and the “fluorescence response of GECFINDER” value (Supplementary Fig. 3 b, Phe 0.001 μM) was -4.337e-17. The “fluorescence response of GECFINDER” value (Supplementary Fig. 3 b, Phe 0.005 μM) was 0.01069, the “fluorescence response of GECFINDER” value (Supplementary Fig. 3 b, Phe 0.01 μM) was -0.003867 and the “fluorescence response of GECFINDER” value (Supplementary Fig. 3 b, Phe 0.1 μM) was 0.001408. For the same compound, the “fluorescence response of GECFINDER” value (Supplementary Fig. 3 b, Phe 1 μM) was 0.04065, the “fluorescence response of GECFINDER” value (Supplementary Fig. 3 b, Phe 10 μM) was 0.112 and the “fluorescence response of GECFINDER” value (Supplementary Fig. 3 b, Phe 50 μM) was 0.2916. The “fluorescence response of GECFINDER” value (Supplementary Fig. 3 b, Phe 100 μM) was 0.4046, the “fluorescence response of GECFINDER” value (Supplementary Fig. 3 b, Phe 500 μM) was 0.8587 and the “fluorescence response of GECFINDER” value (Supplementary Fig. 3 b, Phe 1000 μM) was 1.065. For the same compound, the “fluorescence response of GECFINDER” value (Supplementary Fig. 3 b, Phe 5000 μM) was 1.452 and the “fluorescence response of GECFINDER” value (Supplementary Fig. 3 b, Phe 10000 μM) was 1.455.
